Measurements taken from patent US20240067632A1, “WEE1 Degrading Compounds and Uses Thereof” (Bristol-Myers Squibb Company, priority 2022, published 2024).
Like-named read-outs stand apart in the source and are kept apart here.

Experiments:
MKN45 cells = assay: MKN45 cell proliferation assay (Cell-Titer-Glo, 120 h); assay type: cell-based; details: for EC50: Homo sapiens, MKN-45, 120 h, Cell-Titer-Glo, read-out: MKN45 Cell Prolif. 120 hr (EC50); for MKN45 Cell Prolif. 120 hr (Ymin-Obs): minimal percent of DMSO control observed in the concentrations tested
Procedure, shortened: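 Cells seeded at 400/well onto pre-printed 10-point half-log dilutions (top 1 or 10 uM, 0.1% DMSO final), in triplicate, and grown 120 h at 37 C. Viability by Cell-Titer-Glo luminescence, blank-subtracted and normalised to DMSO; EC50 from four-parameter logistic fit, with observed minimal % of control recorded as Ymin-obs.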

WEE1 = biological target: T1, WEE1 (Homo sapiens, UniProt P30291+Q96SW2); assay: WEE1-ePL degradation assay (LentiX-WEE1-ePL-GSPT1-ND cells, InCELL Hunter luminescence, 4 h); assay type: cell-based; details: 293T-LentiX WEE1-ePL cells; for DC50: read-out: 293T-LentiX WEE1-ePL Degradation 4 hr (EC50)
T1 construct: C-terminal ePL-tagged (DiscoverX, Fremont, CA) full-length WEE1 expression construct; expressed in transfected cells; host or cells: LentiX-HEK293T (Invitrogen), lentiviral transduction; co-expressing GSPT1-GN (G576N, lacking the first 158 amino acids)
Procedure, shortened: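 HEK293T cells stably expressing C-terminal ePL-tagged full-length WEE1, 2500 cells/well, treated 4 h at 37° C with a 10-point 3-fold series from 1 or 10 uM. Remaining WEE1-ePL read by InCELL Hunter luminescence after 30 min. EC50 came from a four-parameter logistic fit, with Ymax set from DMSO control.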

[1] = lower limit of the fit (0 = luciferase inhibitor, Ymax = DMSO control)

SMILES | EC50 (MKN45 cells; growth inhibition) [nM] | MKN45 Cell Prolif. 120 hr (Ymin-Obs) (MKN45 cells) | 293T-LentiX WEE1-ePL Degradation 4 hr (Ymin) (WEE1; [1]) | DC50 (WEE1) [nM] | EC50 (MKN45 cells) [nM] | 293T-LentiX WEE1-ePL Degradation 4 hr (Ymin) (WEE1; lower limit of the fit (Ymin=0 luciferase inhibitor, Ymax DMSO control))
CNC(=O)c1ccc2cc(CN3CC[C@H](Oc4ccc5c(c4)CN(C4CCC(=O)NC4=O)C5=O)C3)ncc2c1 (stereo partly drawn) [3-{[(3S)-3-{[2-(2,6-dioxopiperidin-3-yl)-1-oxo-2,3-dihydro-1H-isoindol-5-yl]oxy}pyrrolidin-1-yl]methyl}-N-methylisoquinoline-7-carboxamide] | 66.8 | 7.51 | 28 | 29.8 | – | –
N#Cc1ccc2cc(CN3CC[C@H](Oc4ccc5c(c4)CN(C4CCC(=O)NC4=O)C5=O)C3)ncc2c1 (stereo partly drawn) [3-{[(3S)-3-{[2-(2,6-dioxopiperidin-3-yl)-1-oxo-2,3-dihydro-1H-isoindol-5-yl]oxy}pyrrolidin-1-yl]methyl}isoquinoline-7-carbonitrile] | 10 | 8.661 | 29 | 1.87 | – | –
N#Cc1nc2ccccc2cc1CN1CC[C@H](Oc2ccc3c(c2)CN(C2CCC(=O)NC2=O)C3=O)C1 (stereo partly drawn) [3-{[(3S)-3-{[2-(2,6-dioxopiperidin-3-yl)-1-oxo-2,3-dihydro-1H-isoindol-5-yl]oxy}pyrrolidin-1-yl]methyl}quinoline-2-carbonitrile] | 5.83 | 6.985 | 29 | 1.2 | – | –
O=C1CCC(N2Cc3cc(O[C@H]4CCN(Cc5ccc6nc(N7CCS(=O)(=O)CC7)ncc6c5)C4)ccc3C2=O)C(=O)N1 (stereo partly drawn) [4-(6-{[(3S)-3-{[2-(2,6-dioxopiperidin-3-yl)-1-oxo-2,3-dihydro-1H-isoindol-5-yl]oxy}pyrrolidin-1-yl]methyl}quinazolin-2-yl)-1λ^6-thiomorpholine-1,1-dione] | 51 | 17.09 | 42 | 23.6 | – | –
O=C1CCC(N2Cc3cc(O[C@H]4CCN(Cc5ccc6nc(N7CCS(=O)(=O)CC7)ccc6c5)C4)ccc3C2=O)C(=O)N1 (stereo partly drawn) [4-(6-{[(3S)-3-{[2-(2,6-dioxopiperidin-3-yl)-1-oxo-2,3-dihydro-1H-isoindol-5-yl]oxy}pyrrolidin-1-yl]methyl}quinolin-2-yl)-1λ^6-thiomorpholine-1,1-dione] | 29.4 | 10.02 | 40 | 19.1 | – | –
N#Cc1ccc2cc(CN3C[C@@H](F)[C@H](Oc4ccc5c(c4)CN(C4CCC(=O)NC4=O)C5=O)C3)ccc2n1 (stereo partly drawn) [6-{[(3R,4R)-3-{[2-(2,6-dioxopiperidin-3-yl)-1-oxo-2,3-dihydro-1H-isoindol-5-yl]oxy}-4-fluoropyrrolidin-1-yl]methyl}quinoline-2-carbonitrile] | 91.6 | 37.36 | 32.7 | 22.3 | – | –
N#Cc1ccc2cc(CN3C[C@H](F)[C@H](Oc4ccc5c(c4)CN(C4CCC(=O)NC4=O)C5=O)C3)ccc2n1 (stereo partly drawn) [6-{[(3R,4S)-3-{[2-(2,6-dioxopiperidin-3-yl)-1-oxo-2,3-dihydro-1H-isoindol-5-yl]oxy}-4-fluoropyrrolidin-1-yl]methyl}quinoline-2-carbonitrile] | 22.7 | 24.13 | 33.71 | 13.1 | – | –
N#Cc1ccc2cc(CN3CC[C@H](Oc4ccc5c(c4)CN([C@H]4CCC(=O)NC4=O)C5=O)C3)cc(F)c2n1 [6-{[(3S)-3-({2-[(3S)-2,6-dioxopiperidin-3-yl]-1-oxo-2,3-dihydro-1H-isoindol-5-yl}oxy)pyrrolidin-1-yl]methyl}-8-fluoroquinoline-2-carbonitrile] | 2.72 | 8.579 | 27.19 | 1.71 | – | –
N#Cc1ccc2cc(CN3CC[C@H](Oc4ccc5c(c4)CN([C@H]4CCC(=O)NC4=O)C5=O)C3)ccc2n1 [6-{[(3S)-3-({2-[(3S)-2,6-dioxopiperidin-3-yl]-1-oxo-2,3-dihydro-1H-isoindol-5-yl}oxy)pyrrolidin-1-yl]methyl}quinoline-2-carbonitrile] | – | 14.78 | – | 2.46 | 6.01 | 28.06
C[C@]1(Oc2ccc3c(c2)CN(C2CCC(=O)NC2=O)C3=O)CCN(Cc2ccc3nc(C#N)ccc3c2)C1 (stereo partly drawn) [6-{[(3S)-3-{[2-(2,6-dioxopiperidin-3-yl)-1-oxo-2,3-dihydro-1H-isoindol-5-yl]oxy}-3-methylpyrrolidin-1-yl]methyl}quinoline-2-carbonitrile] | > 10000 | 80.88 | 94 | – | – | –
Cc1cc(C#N)c2cc(CN3CC[C@H](Oc4ccc5c(c4)CN(C4CCC(=O)NC4=O)C5=O)C3)ccc2n1 (stereo partly drawn) [6-{[(3S)-3-{[2-(2,6-dioxopiperidin-3-yl)-1-oxo-2,3-dihydro-1H-isoindol-5-yl]oxy}pyrrolidin-1-yl]methyl}-2-methylquinoline-4-carbonitrile] | > 10000 | 86.89 | 66.8 | 20.7 | – | –
N#Cc1nc2ccc(CN3CC[C@H](Oc4ccc5c(c4)CN(C4CCC(=O)NC4=O)C5=O)C3)cc2cc1F (stereo partly drawn) [6-{[(3S)-3-{[2-(2,6-dioxopiperidin-3-yl)-1-oxo-2,3-dihydro-1H-isoindol-5-yl]oxy}pyrrolidin-1-yl]methyl}-3-fluoroquinoline-2-carbonitrile] | 32.8 | 12.265 | 35 | 7.79 | – | –
CN(C)C(=O)c1ccc2cc(CN3CC[C@H](Oc4ccc5c(c4)CN(C4CCC(=O)NC4=O)C5=O)C3)ccc2n1 (stereo partly drawn) [6-{[(3S)-3-{[2-(2,6-dioxopiperidin-3-yl)-1-oxo-2,3-dihydro-1H-isoindol-5-yl]oxy}pyrrolidin-1-yl]methyl}-N,N-dimethylquinoline-2-carboxamide] | 17.5 | 8.56 | 29.42 | 9.05 | – | –
CNC(=O)c1ncc2cc(CN3CC[C@H](Oc4ccc5c(c4)CN(C4CCC(=O)NC4=O)C5=O)C3)ccc2n1 (stereo partly drawn) [6-{[(3S)-3-{[2-(2,6-dioxopiperidin-3-yl)-1-oxo-2,3-dihydro-1H-isoindol-5-yl]oxy}pyrrolidin-1-yl]methyl}-N-methylquinazoline-2-carboxamide] | 337 | 8.51 | 38 | 175 | – | –
CNC(=O)c1ccc2cc(CN3CC[C@H](Oc4ccc5c(c4)CN(C4CCC(=O)NC4=O)C5=O)C3)ccc2n1 (stereo partly drawn) [6-{[(3S)-3-{[2-(2,6-dioxopiperidin-3-yl)-1-oxo-2,3-dihydro-1H-isoindol-5-yl]oxy}pyrrolidin-1-yl]methyl}-N-methylquinoline-2-carboxamide] | 11.7 | 9.36 | 26.91 | 4.27 | – | –
N#Cc1ccc(CN2CC[C@H](Oc3ccc4c(c3)CN(C3CCC(=O)NC3=O)C4=O)C2)nc1 (stereo partly drawn) [6-{[(3S)-3-{[2-(2,6-dioxopiperidin-3-yl)-1-oxo-2,3-dihydro-1H-isoindol-5-yl]oxy}pyrrolidin-1-yl]methyl}pyridine-3-carbonitrile] | > 10000 | 69.48 | 64 | 61 | – | –
N#Cc1ncc2cc(CN3CC[C@H](Oc4ccc5c(c4)CN(C4CCC(=O)NC4=O)C5=O)C3)ccc2n1 (stereo partly drawn) [6-{[(3S)-3-{[2-(2,6-dioxopiperidin-3-yl)-1-oxo-2,3-dihydro-1H-isoindol-5-yl]oxy}pyrrolidin-1-yl]methyl}quinazoline-2-carbonitrile] | 73 | 17.27 | 35 | 12.1 | – | –
N#Cc1ccc2cc(CN3CC[C@H](Oc4ccc5c(c4)CN(C4CCC(=O)NC4=O)C5=O)C3)ccc2n1 (stereo partly drawn) [6-{[(3S)-3-{[2-(2,6-dioxopiperidin-3-yl)-1-oxo-2,3-dihydro-1H-isoindol-5-yl]oxy}pyrrolidin-1-yl]methyl}quinoline-2-carbonitrile] | 7.92 | 9.504 | 27.49 | 3.05 | – | –
NC(=O)c1ccc2cc(CN3CC[C@H](Oc4ccc5c(c4)CN(C4CCC(=O)NC4=O)C5=O)C3)ccc2n1 (stereo partly drawn) [6-{[(3S)-3-{[2-(2,6-dioxopiperidin-3-yl)-1-oxo-2,3-dihydro-1H-isoindol-5-yl]oxy}pyrrolidin-1-yl]methyl}quinoline-2-carboxamide] | 17.1 | 10.71 | 26.545 | 3.53 | – | –
N#Cc1cnc2ccc(CN3CC[C@H](Oc4ccc5c(c4)CN(C4CCC(=O)NC4=O)C5=O)C3)cc2c1 (stereo partly drawn) [6-{[(3S)-3-{[2-(2,6-dioxopiperidin-3-yl)-1-oxo-2,3-dihydro-1H-isoindol-5-yl]oxy}pyrrolidin-1-yl]methyl}quinoline-3-carbonitrile] | 44 | 12.18 | 33 | 4.18 | – | –
